One data set relates to male Sprague–Dawley rats. The settings on record: IP single dose 0; 100; 200; 225; 300, 12 h after dosing, BW 100–130 g; ref Copple et al. [2002]; cited from earlier work.
On the set-up of data set [1]: method as in IARC [2019]. As to conditions: possibly carcinogenic in humans; ref IARC [2019]; cited from earlier work.
Data set [2] deals with primary rat hepatocytes. Set-up: method as in Tu et al. ([2013]). As to conditions: 2 µM, pH 7.4; ref Tu et al. ([2013]); cited from earlier work.
Data set [3] in a line: Fraction unbound in rat serum by rapid equilibrium dialysis (RED). Type of data set: in vitro ADME. The settings on record: 37 °C, read-out: fub, in vivo (fraction unbound). The protocol: The fub,in vivo was determined by rapid equilibrium dialysis (RED) (Waters et al. [2008]). […] The device was sealed with tape and incubated at 37 °C on a shaker at 250 rpm. After incubation for 5 h when the system reached equilibrium (van Liempd et al. [2011]), 50 µl of post-dialysis samples was collected from the serum and buffer chambers into separate eppendorf tubes. Subsequently, 50 µl of rat serum was added to the buffer samples and 50 µl of PBS was added to the serum samples. To precipitate the protein, 300 µl of ice-cold acetonitrile (90% v/v) was added to both tubes. After putting the mixtures on ice for 30 min, the mixtures were centrifuged at 15,000 g for 30 min at 4 °C, and the supernatants were diluted five times in 90% (v/v) acetonitrile and analyzed by LC–MS as described above. The measurements were performed in triplicate.

The test system of data set [4] is primary rat hepatocytes. Briefly: Uptake of monocrotaline into primary rat hepatocytes (Tu et al. 2013). Format: cell-based. The settings on record: scaled with 120 mg protein/g liver and 34 g liver/kg bw from Tu et al. ([2013]).
A short description of data set [5]: Substrate depletion in incubations with pooled rat intestinal microsomes. Format: in vitro ADME, rat (Sprague–Dawley). On the procedure: After 5 min of pre-incubation in a shaking water bath at 37 °C, the reactions were started by the addition of 1 mM NADPH. The reactions were carried out for 1 h and 2 h for liver and intestinal microsomes, respectively. For each incubation, a corresponding control incubated in the absence of NADPH was included by adding buffer instead of NADPH. To stop the metabolic conversion, 100 µl of ice-cold methanol was added and the sample was put on ice, then centrifuged at 5000 × g for 20 min at 4 °C using a microcentrifuge (CT15RE, VWR, Leuven, Belgium). Supernatants were diluted 200 times in 90% (v/v) acetonitrile and transferred to LC–MS vials. LC–MS analysis was performed using a Shimadzu Nexera XR LC-20AD SR UPLC system in tandem with a Shimadzu LCMS-8040 mass spectrometer (Shimadzu, Kyoto, Japan). From each incubation, 1 µl of supernatant was loaded onto a Luna Omega polar C18 100A LC column (1.6 µm 100 × 2.1 mm, Phenomenex) fitted with a FP polar precolumn (Phenomenex), using a flow rate of 0.3 ml/min. The temperature was set at 40 °C and 5 °C for column and sample, respectively. The mobile phase consisted of ultrapure water (solvent A) and acetonitrile (solvent B) both containing 0.1% (v/v) formic acid. The gradient began with 100% solvent A (0% B) for 1 min to wash away unwanted salts, followed by a linear gradient from 0 to 5% B till 8 min and a further increase to 100% B in 2 min, keeping the elution at 100% B for 0.5 min, then the column was set back to the starting conditions and equlibrated for 3.4 min before the next injection. […] For all incubations, three independent replicates were performed.
The ratio of Vmax and Km was calculated as the in vitro catalytic efficiency (kcat) expressed in […]. […] The rat liver weight of 8.5 g and small intestine weight of 3.5 g (see Table 1) (Brown et al. [1997]) were used to scaled the in vivo kcat values to values expressed in ml/min/tissue.

The subject of a further data set is HepaRG cells. Also on record: method as in Louisse et al. ([2019]). The settings on record: 24 h exposure; ref Louisse et al. ([2019]); cited from earlier work.
Data set [6] deals with primary rat hepatocytes. Briefly: WST-1 cytotoxicity assay with primary rat hepatocytes. Type of data set: cell-based, rat (Sprague–Dawley). The protocol: The monocrotaline-induced liver toxicity was tested in vitro using the WST-1 assay which measures the formazan formation by the metabolically active cells from WST-1. Pooled cryopreserved plateable male rat (Sprague–Dawley) hepatocytes (RTCP10™) were thawed and seeded in accordance with the manufacturer’s protocol. Briefly, cells were seeded in 96-well plates (Greiner bio-one, Alphen aan den Rijn, The Netherlands) at a concentration of 5 × 10^5 cells/ml to give 1.25 × 10^4 cells/well and incubated at 37 °C, 5% CO2 in a humidified atmosphere for 6 h to allow cell adherence. […] The solvent DMSO (0.5% (v/v) final concentration in exposure medium) was used as a negative control and triton X (final concentration 1% (v/v) in exposure medium) served as a positive control in all cytotoxicity assays. After exposure for 24 h, 5 μl (1:20 dilution) WST-1 reagent was added to each well and plates were incubated for an additional 1 h. Then, the plate was shaken at 1000 rpm for 1 min, and absorbance was measured at 440 nm (background absorbance at 620 nm was subtracted) using a SpectraMax M2 (Molecular Devices, Sunnyvale, USA).
Data are presented as mean values ± SE from three independent experiments with three different batches of rat hepatocytes. The cell viability was expressed as percentage of the solvent control, with the solvent control set at 100%. The obtained concentration–response curves for hepatotoxicity were fitted with a symmetrical sigmoidal model (Hill slope) which was further used to derive IC50 values using log [inhibitor] vs. normalized response using GraphPad Prism software (version 5.00 for Windows, GraphPad software, San Diego, USA).
Background: Formazan colour is commonly taken as a measure of viable cells.

A further data set concerns DNA adducts. Set-up: method as in Xia et al. ([2013]). The settings on record: moderate tumour formation; ref Xia et al. ([2013]); cited from earlier work.
Where [7] appears, read: intestine, 20.6 mg microsomal protein/g small intestine, present study.
The mark [8] stands for this setting: small intestine, PBK model code.

SMILES strings stand for the structures.

What is called fraction unbound is free concentration divided by total concentration. For orientation: Km means the concentration of substrate that gives half-maximal velocity. A word on the IC50: it is the concentration needed to halve the response being measured. Turning to `C[C@H]1C(=O)O[C@@H]2CCN3CC=C(COC(=O)[C@](C)(O)[C@]1(C)O)[C@H]23` [Monocrotaline], in the data set on male Sprague–Dawley rats, the “POD: NOAEL, increased plasma ALT” value is recorded as 100 mg/kg bw. In data set [1], the IARC carcinogenicity category is 2B. For the same compound, in the data set on primary rat hepatocytes [2], the “overall rate for uptake into primary rat hepatocytes” value was 14.5 pmol/mg protein/min. Also, in [3], the free fraction (fraction unbound) at 5 h, 150 µM was 0.53 ± 0.12. Besides, the “rate for uptake in the liver of rats, scaled” value in the data set on primary rat hepatocytes [4] was found to be 3.55 µmol/h/kg bw. Also, the Km in data set [5] (Sprague-Dawley, rat, pooled rat intestinal microsomes, pH 7.4, intestine, present study) is 13.4 µM. Moreover, in data set [5] (setting [7]), the “Scaled Vmax” value is recorded as 0.4 nmol/min/g tissue and the Scaled kcat came to 0.03 ml/min/g tissue. In addition, in data set [5] (intestine, present study), the Vmax was 0.02 nmol/min/mg microsomal protein. In [5] (small intestine weight 3.5 g, present study), this compound returned a Scaled kcat of 0.1 ml/min/ tissue. Besides, in data set [5] (setting [8]), the “KmSiM2, affinity constant” value was 13.39 µmol/L and the “VmaxSiM2c, unscaled maximum rate of metabolism” value was 0.02 nmol/min-1/mg protein. In addition, in the data set with HepaRG cells, the “cytotoxicity in HepaRG cells” value is “did not exhibit cytotoxicity”. Moreover, the IC50 in the data set on primary rat hepatocytes [6] (Rattus norvegicus, Hepatocyte, 24 h exposure, serum-free medium, WST-1, read-out: IC50 cell viability) amounted to 225 µM. In addition, the “decrease in cell viability” value with primary rat hepatocytes [6] (highest concentration 600 µM, 24 h) is reported as “over 60%”. For the same compound, in the data set with DNA adducts, the “ranking based on the formation of DNA adducts” value is “group II”.

The values above are taken from paper PMC7415757, “Monocrotaline-induced liver toxicity in rat predicted by a combined in vitro physiologically based kinetic modeling approach” (Archives of Toxicology, 2020).
